ChEMBL document CHEMBL1201862, “PubChem BioAssay data set” (2004)
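Assay format: 96-well plates, 48-hour exposure. GI50: concentration for 50% inhibition of growth.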 Activity calls are given as the source filed them. Cut-off read from the data, not from the text of the source: active = GI50 up to about 1.1 µM and inactive = higher.

Columns and labels:
Assay in all cases: growth of human tumour cells (NCI), 48 h
[1] = system: UACC-62
[2] = system: LOX IMVI
[3] = system: MOLT-4
[4] = system: HCT-15
[5] = system: TK-10
[6] = system: OVCAR-3
[7] = system: SNB-75
[8] = system: OVCAR-4
[9] = system: A549
[10] = system: HT-29
[11] = system: U-251
[12] = system: SK-MEL-2
[13] = system: COLO 205
[14] = system: SNB-19
[15] = system: HCC 2998
[16] = system: K562
[17] = system: CAKI-1

SMILES | GI50 [1] | GI50 [2] | GI50 [3] | GI50 [4] | GI50 [5] | GI50 [6] | GI50 [7] | GI50 [8] | GI50 [9] | GI50 [10] | GI50 [11] | GI50 [12] | GI50 [13] | GI50 [14] | GI50 [15] | GI50 [16] | GI50 [17]
CCC(Oc1ccc(OC)c2ccccc(=O)c12)C(=O)O (stereo not given) | > 100 µM (inactive) | > 100 µM (inactive) | > 100 µM (inactive) | > 100 µM | > 100 µM (inactive) | > 100 µM (inactive) | > 100 µM (inactive) | > 100 µM (inactive) | > 100 µM (inactive) | > 100 µM (inactive) | > 100 µM (inactive) | > 100 µM (inactive) | > 100 µM (inactive) | > 100 µM (inactive) | > 100 µM (inactive) | > 100 µM (inactive) | 
CC(O)CN1C(=O)NC(Cc2ccccc2)C1=O (stereo not given) |  | > 100 µM (inactive) |  |  | > 100 µM (inactive) |  | > 100 µM (inactive) |  | > 100 µM (inactive) | > 100 µM (inactive) | > 100 µM (inactive) | > 100 µM (inactive) | > 100 µM (inactive) | > 100 µM (inactive) | > 100 µM (inactive) |  | > 100 µM (inactive)
CC(=O)Nc1cc(N(CCOS(C)(=O)=O)CCOS(C)(=O)=O)ccc1N=O | > 100 µM (inactive) |  | > 100 µM (inactive) | > 100 µM | > 100 µM (inactive) | > 100 µM (inactive) | > 100 µM (inactive) | > 100 µM (inactive) | > 100 µM (inactive) | > 100 µM (inactive) | > 100 µM (inactive) | > 100 µM (inactive) | > 100 µM (inactive) | > 100 µM (inactive) | > 100 µM (inactive) | > 100 µM (inactive) | > 100 µM (inactive)
O=C1Nc2ccccc2C1(O)C/C(=N/O)c1ccc2ccccc2c1 (stereo not given) |  | 22.3 µM (inactive) | 64.9 µM (inactive) | > 100 µM | > 100 µM (inactive) | > 100 µM (inactive) | 28.6 µM (inactive) | > 100 µM (inactive) | > 100 µM (inactive) | > 100 µM (inactive) | 86.5 µM (inactive) | > 100 µM (inactive) | > 100 µM (inactive) | > 100 µM (inactive) | > 100 µM (inactive) | 72.6 µM (inactive) | 
Cc1cc2c(c(C(N)=O)c1C)-c1ccccc1C2=O | > 100 µM (inactive) | > 100 µM (inactive) | > 100 µM (inactive) | > 100 µM | > 100 µM (inactive) | > 100 µM (inactive) | 83.2 µM (inactive) | > 100 µM (inactive) | > 100 µM (inactive) | > 100 µM (inactive) | > 100 µM (inactive) | > 100 µM (inactive) | > 100 µM (inactive) | > 100 µM (inactive) | > 100 µM (inactive) | > 100 µM (inactive) | 
COc1cccc(SSc2cccc(OC)c2C(=O)O)c1C(=O)O | > 100 µM (inactive) | > 100 µM (inactive) | > 100 µM (inactive) | > 100 µM | > 100 µM (inactive) | > 100 µM (inactive) | > 100 µM (inactive) | > 100 µM (inactive) | > 100 µM (inactive) | > 100 µM (inactive) | > 100 µM (inactive) | > 100 µM (inactive) | > 100 µM (inactive) |  |  | > 100 µM (inactive) | > 100 µM (inactive)
CCOC(=O)C(C)(NC(=O)c1ccc(NCc2ccc3nc(NC(=O)c4ccccc4)nc(NC(=O)c4ccccc4)c3c2)cc1)C(=O)OCC | 8.49 µM (inactive) | 13.6 µM (inactive) | 26.6 µM (inactive) | 24.4 µM | 19.9 µM (inactive) | 5.64 µM (inactive) | 3.4 µM (inactive) | 2.09 µM (inactive) | 12.2 µM (inactive) | 13.3 µM (inactive) | 7.11 µM (inactive) | 14.1 µM (inactive) | 40.4 µM (inactive) |  | 25.8 µM (inactive) |  | 8.02 µM (inactive)
COc1ccc(/C=C2/C(=O)N(C(=O)c3ccc(Cl)cc3)N=C2C)cc1OC | > 100 µM (inactive) | > 100 µM (inactive) |  | > 100 µM | > 100 µM (inactive) | > 100 µM (inactive) |  | > 100 µM (inactive) | > 100 µM (inactive) | > 100 µM (inactive) | > 100 µM (inactive) | > 100 µM (inactive) | > 100 µM (inactive) | > 100 µM (inactive) | > 100 µM (inactive) | > 100 µM (inactive) | > 100 µM (inactive)
CC(=O)NNc1nc(C)c(C(=O)NNC(=O)C(=O)Nc2c([N+](=O)[O-])ccc(C)c2C)s1 | > 100 µM (inactive) | 78.3 µM (inactive) | 43.6 µM (inactive) | > 100 µM | > 100 µM (inactive) | > 100 µM (inactive) |  | 52.8 µM (inactive) | > 100 µM (inactive) | > 100 µM (inactive) | > 100 µM (inactive) | > 100 µM (inactive) | > 100 µM (inactive) | > 100 µM (inactive) | > 100 µM (inactive) | 41.5 µM (inactive) | > 100 µM (inactive)
